Reference: patent US20250171463A1 (BIOGEN MA INC., priority 2022, published 2025)

Target: T1, EBP (Homo sapiens, UniProt Q15125)
T1 construct: HEK293T cells were utilized as the source of EBP enzyme; endogenous in cells; host or cells: HEK293T
Assay: EBP Functional Assay (EBP immunoaffinity LC-MS assay)
Format: biochemical
Settings: EBP enzyme from HEK293T cells; 30 min with inhibitor, then zymosterol-d5, 37° C., 4 h; percent conversion to dehydrolathosterol-d5 by LC-APCI MRM MS
Outline: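 HEK293T cells served as EBP source; enzyme preincubated 30 min with inhibitor dilutions, then zymosterol-d5 substrate added and incubated 4 h at 37° C. Sterols extracted and quantified by LC-APCI MRM MS; percent conversion to […] fit to 4-parameter logistic for IC50. Tasin-1 reference inhibitor.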

T1 sequence (Q15125 whole entry): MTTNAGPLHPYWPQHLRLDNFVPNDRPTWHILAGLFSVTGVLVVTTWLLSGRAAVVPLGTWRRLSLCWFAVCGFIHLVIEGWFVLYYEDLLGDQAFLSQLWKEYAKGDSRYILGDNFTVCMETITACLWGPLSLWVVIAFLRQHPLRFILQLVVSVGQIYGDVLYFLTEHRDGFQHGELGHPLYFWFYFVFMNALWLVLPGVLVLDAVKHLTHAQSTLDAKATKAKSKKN

Row | SMILES | IC50
1 | Cc1nc(C(F)(F)F)ccc1S(=O)(=O)N1CC2(CN(CC3CCOC3)C2)C1 (single isomer, unassigned) [Example 161] | 250 to 4000 nM
2 | O=S(=O)(c1ccc(OC(F)F)cc1F)N1CC2(CN(CC3CCOCC3)C2)C1 [Example 226, 2-((4-(difluoromethoxy)-2-fluorophenyl)sulfonyl)-6-((tetrahydro-2H-pyran-4-yl)methyl)-2,6-diazaspiro[3.3]heptane] | 250 to 4000 nM
3 | O=S(=O)(c1ccc(OC(F)F)cc1)N1CCOC2(CCN(CC3COC3)C2)C1 (stereo not drawn) [Example 17, 9-((4-(Difluoromethoxy)phenyl)sulfonyl)-2-(oxetan-3-ylmethyl)-6-oxa-2,9-diazaspiro[4.5]decane] | 250 to 4000 nM
4 | Cc1ncccc1S(=O)(=O)N1CC2(CN(C3CCOCC3)C2)C1 [Example 164, 2-((2-methylpyridin-3-yl)sulfonyl)-6-(tetrahydro-2H-pyran-4-yl)-2,6-diazaspiro[3.3]heptane] | 250 to 4000 nM
5 | Cn1nc2c(c1S(=O)(=O)N1CC3(CN(C4CCOCC4)C3)C1)CCC2 [Example 169, 2-methyl-3-((6-(tetrahydro-2H-pyran-4-yl)-2,6-diazaspiro[3.3]heptan-2-yl)sulfonyl)-2,4,5,6-tetrahydrocyclopenta[c]pyrazole] | 250 to 4000 nM
6 | O=S(=O)(c1ccc(C(F)(F)F)cc1C(F)(F)F)N1CC2(CN(CC3CCOCC3)C2)C1 [Example 211, 2-((2,4-bis(trifluoromethyl)phenyl)sulfonyl)-6-((tetrahydro-2H-pyran-4-yl)methyl)-2,6-diazaspiro[3.3]heptane] | 100 to 250 nM
7 | O=S(=O)(c1cc(C(F)F)nn1C1CC1)N1CC2(CN(C3CCOCC3)C2)C1 [Example 120, 2-((1-cyclopropyl-3-(difluoromethyl)-1H-pyrazol-5-yl)sulfonyl)-6-(tetrahydro-2H-pyran-4-yl)-2,6-diazaspiro[3.3]heptane] | 100 to 250 nM
8 | Cc1nc(C(C)(F)F)ccc1S(=O)(=O)N1CC2(CN(CC3(C)CCOCC3)C2)C1 [Example 83] | 100 to 250 nM
9 | CC1(O)CCC(N2CC3(C2)CN(S(=O)(=O)c2cnc(C(F)(F)F)cc2C2CC2)C3)CC1 (single isomer, unassigned) [Example 123, 4-(6-((4-cyclopropyl-6-(trifluoromethyl)pyridin-3-yl)sulfonyl)-2,6-diazaspiro[3.3]heptan-2-yl)-1-methylcyclohexan-1-ol] | 100 to 250 nM
10 | Cn1nc(C(C)(F)F)cc1S(=O)(=O)N1CC2(CN(C3CCOCC3)C2)C1 [Example 166, 2-((3-(1,1-difluoroethyl)-1-methyl-1H-pyrazol-5-yl)sulfonyl)-6-(tetrahydro-2H-pyran-4-yl)-2,6-diazaspiro[3.3]heptane] | 100 to 250 nM
11 | Cc1nc(C(F)F)ccc1S(=O)(=O)N1CC2(CN(C3CC4(COC4)C3)C2)C1 [Example 91, 2-((6-(difluoromethyl)-2-methylpyridin-3-yl)sulfonyl)-6-(2-oxaspiro[3.3]heptan-6-yl)-2,6-diazaspiro[3.3]heptane] | 250 to 4000 nM
12 | Cc1cc(C(F)(F)F)ncc1S(=O)(=O)N1CC2(CCN(C3CCOCC3)C2)C1 [Example 57] | 100 to 250 nM
13 | Cc1nc(C(F)(F)F)ccc1S(=O)(=O)N1CC2(CN(CC3(O)CCOCC3)C2)C1 [Example 187, 4-((6-((2-methyl-6-(trifluoromethyl)pyridin-3-yl)sulfonyl)-2,6-diazaspiro[3.3]heptan-2-yl)methyl)tetrahydro-2H-pyran-4-ol] | 250 to 4000 nM
14 | Cc1nc(C(F)(F)F)ccc1S(=O)(=O)N1CC2(CN(C[C@H]3[C@H](C#N)C3(C)C)C2)C1 (racemic) [Example 174] | 100 to 250 nM
15 | COC(C)(C)CN1[C@@H]2CC[C@H]1CC1(C2)CN(S(=O)(=O)c2ccc(OC(F)F)cc2)C1 [Example 64, (1′R,5′S)-1-((4-(Difluoromethoxy)phenyl)sulfonyl)-8′-(2-methoxy-2-methylpropyl)-8′-azaspiro[azetidine-3,3′-bicyclo[3.2.1]octane]] | 250 to 4000 nM
16 | COC1CCC(N2CC3(C2)CN(S(=O)(=O)c2ccc(C(F)F)nc2C2CC2)C3)CC1 (single isomer, unassigned) [Example 117, 2-((2-cyclopropyl-6-(difluoromethyl)pyridin-3-yl)sulfonyl)-6-(4-methoxycyclohexyl)-2,6-diazaspiro[3.3]heptane] | 250 to 4000 nM

The next lines start with the values.

Row | IC50 | SMILES
17 | < 100 nM | Cn1nc(C(F)(F)F)cc1S(=O)(=O)N1CC2(CN(C3(C)CCOCC3)C2)C1 [Example 76, 2-((1-methyl-3-(trifluoromethyl)-1H-pyrazol-5-yl)sulfonyl)-6-(4-methyltetrahydro-2H-pyran-4-yl)-2,6-diazaspiro[3.3]heptane]
18 | 100 to 250 nM | O=S(=O)(c1cnc(C2CC2)s1)N1CCOC2(CCN(C3CCOCC3)C2)C1 (stereo not drawn) [Example 23, 9-((2-Cyclopropylthiazol-5-yl)sulfonyl)-2-(tetrahydro-2H-pyran-4-yl)-6-oxa-2,9-diazaspiro[4.5]decane]
19 | 100 to 250 nM | Cc1nc(C(F)(F)F)ccc1S(=O)(=O)N1CC2(CN(CC3CCOC(C)(C)C3)C2)C1 (stereo not drawn) [Example 186]
20 | < 100 nM | Cc1cc(C(F)(F)F)nc(C)c1S(=O)(=O)N1CC2(CN(C3CCOCC3)C2)C1 [Example 100, 2-((2,4-dimethyl-6-(trifluoromethyl)pyridin-3-yl)sulfonyl)-6-(tetrahydro-2H-pyran-4-yl)-2,6-diazaspiro[3.3]heptane]
21 | < 100 nM | Cc1nc(C(F)(F)F)ccc1S(=O)(=O)N1CC2(CN(C(C)C3CCCO3)C2)C1 (mixture of isomers) [Example 138]
22 | 100 to 250 nM | Cc1nc(C(C)(F)F)ccc1S(=O)(=O)N1CC2(CN(C3CC4(COC4)C3)C2)C1 [Example 78, 2-((6-(1,1-difluoroethyl)-2-methylpyridin-3-yl)sulfonyl)-6-(2-oxaspiro[3.3]heptan-6-yl)-2,6-diazaspiro[3.3]heptane]
23 | 100 to 250 nM | O=S(=O)(c1ccc(OC(F)F)cc1)N1CCO[C@]2(CCN(C3CCOCC3)C2)C1 (single isomer, unassigned) [Example 3]
24 | < 100 nM | CC1(O)CCC(N2CC3(C2)CN(S(=O)(=O)c2ccc(C(F)(F)F)nc2C2CC2)C3)CC1 (stereo not drawn) [Example 195, 4-(6-((2-cyclopropyl-6-(trifluoromethyl)pyridin-3-yl)sulfonyl)-2,6-diazaspiro[3.3]heptan-2-yl)-1-methylcyclohexan-1-ol]
25 | < 100 nM | CCc1cc(C(F)(F)F)ncc1S(=O)(=O)N1CC2(CN(C3CCC(C)(O)CC3)C2)C1 (single isomer, unassigned) [Example 128, 4-(6-((4-ethyl-6-(trifluoromethyl)pyridin-3-yl)sulfonyl)-2,6-diazaspiro[3.3]heptan-2-yl)-1-methylcyclohexan-1-ol]
26 | < 100 nM | O=S(=O)(c1ccc(C(F)(F)F)nc1C(F)(F)F)N1CC2(CN(CC3CCOCC3)C2)C1 [Example 111]
27 | 100 to 250 nM | Cn1nc(C(F)(F)F)cc1S(=O)(=O)N1CC2(CN(CC3CCOC(C)(C)C3)C2)C1 (single isomer, unassigned) [Example 200]
28 | < 100 nM | Cc1nc(C(C)(F)F)ccc1S(=O)(=O)N1CC2(CN(CC3CCOC3)C2)C1 (stereo not drawn) [Example 85]
29 | < 100 nM | Cc1cc(C(F)(F)F)ncc1S(=O)(=O)N1CC2(CN(CC3CCOCC3)C2)C1 [Example 217, 2-((4-methyl-6-(trifluoromethyl)pyridin-3-yl)sulfonyl)-6-((tetrahydro-2H-pyran-4-yl)methyl)-2,6-diazaspiro[3.3]heptane]
30 | < 100 nM | Cc1ccc(S(=O)(=O)N2CCC3(CC2)CN(CC2CCOCC2)C3)c(C)c1 [Example 35, 7-((2,4-Dimethylphenyl)sulfonyl)-2-((tetrahydro-2H-pyran-4-yl)methyl)-2,7-diazaspiro[3.5]nonane]
31 | < 100 nM | Cc1nc(C(F)(F)F)ccc1S(=O)(=O)N1CC2(CN(CCCOC3CCCC3)C2)C1 [Example 176]
32 | 100 to 250 nM | O=S(=O)(c1ccc(OC(F)F)cc1F)N1CC2(CN(C3CCOCC3)C2)C1 [Example 227, 2-((4-(difluoromethoxy)-2-fluorophenyl)sulfonyl)-6-(tetrahydro-2H-pyran-4-yl)-2,6-diazaspiro[3.3]heptane]
33 | < 100 nM | O=S(=O)(c1ccc(OC(F)F)cc1)N1CCOC2(CCN(C3CC4(COC4)C3)C2)C1 (racemic) [Example 25, 9-((4-(Difluoromethoxy)phenyl)sulfonyl)-2-(2-oxaspiro[3.3]heptan-6-yl)-6-oxa-2,9-diazaspiro[4.5]decane]
34 | < 100 nM | CC(C1CCOCC1)N1CC2(C1)CN(S(=O)(=O)c1cc(C(F)(F)F)nn1C)C2 (racemic) [Example 212, rac-2-((1-methyl-3-(trifluoromethyl)-1H-pyrazol-5-yl)sulfonyl)-6-(1-(tetrahydro-2H-pyran-4-yl)ethyl)-2,6-diazaspiro[3.3]heptane]
35 | < 100 nM | Cc1nc(C(F)(F)F)ccc1S(=O)(=O)N1CC2(CN(C3CCC(F)(F)CC3)C2)C1 [Example 150]
36 | < 100 nM | C=Cc1nc(C(F)(F)F)ccc1S(=O)(=O)N1CC2(CN(C3CCOCC3)C2)C1 [Example 203, 2-(tetrahydro-2H-pyran-4-yl)-6-((6-(trifluoromethyl)-2-vinylpyridin-3-yl)sulfonyl)-2,6-diazaspiro[3.3]heptane]
37 | < 100 nM | Cc1nc(C(F)(F)F)ccc1S(=O)(=O)N1CC2(CN(C(C)C3COC3)C2)C1 (single isomer, unassigned) [Example 159]
38 | < 100 nM | Cc1ccc(S(=O)(=O)N2CCC3(CCN(C4CCOCC4)C3)CC2)c(Cl)c1 [Example 36, 8-((2-Chloro-4-methylphenyl)sulfonyl)-2-(tetrahydro-2H-pyran-4-yl)-2,8-diazaspiro[4.5]decane]
39 | < 100 nM | O=S(=O)(c1ccc(C(F)(F)F)nc1C1CC1)N1CC2(CN(C3CCOCC3)C2)C1 [Example 193, 2-((2-cyclopropyl-6-(trifluoromethyl)pyridin-3-yl)sulfonyl)-6-(tetrahydro-2H-pyran-4-yl)-2,6-diazaspiro[3.3]heptane]
